# Patent US11571423B2, “Small molecule modulators of human sting” (Curadev Pharma Limited, priority 2017, dated 2023)
# Where a name gives a salt, the structure may show the parent alone.
# Target: hSTING(R232) (Homo sapiens, UniProt Q86WV6, H232R)
# Test: Luciferase reporter assay in HEK293T-hSTING-Luciferase cells, R232 (wild type) human STING
# Type: cell-based
# Conditions: 20 hr stimulation, read-out: R232 human activity (EC50 range)
# Description: Stable Cell Line Generation • a) Stable STING expressing cells—Stable HEK293T STING-expressing cell lines were generated using plasmids purchased from Invivogen, CA, USA, that contain STING cDNA cloned into the pUNO-1 vector under hEF1-HTLV promoter and containing the Blasticidin selection cassette. The plasmids hSTING(R232), hSTING(H232), hSTING(HAQ) were directly procured from Invivogen while hSTING (AQ) and hSTING (Q) were derived from hSTING(HAQ) and hSTING (R232) plasmids respectively by using a PCR based site directed mutagenesis method. These vectors were individually transfected into HEK293T cells using Lipofectamine (Invitrogen) and transfected cells were selected under Blasticidin selection. These transfected cells were further subjected to clonal selection using the limiting dilution method to obtain clonally pure populations of HEK cells transfected with each of the above mentioned human STING variants. Only those clones were selected in which ligand independent activation of STING was minimal. • b) Stable Luciferase reporter gene expressing cells—Stable HEK293T Luciferase reporter gene expressing cell lines were generated using pCDNA4 plasmids under an IRF-inducible promoter. This promoter is comprised of five tandem interferon-stimulated response elements (ISRE) fused to an ISG54 minimal promoter. This vector was transfected into HEK293T cells using Lipofectamine (Invitrogen) and transfected cells were selected under Zeocin selection. These transfected cells were further subjected to clonal selection using the limiting dilution method to obtain clonally pure populations of HEK cells transfected the Luciferase reporter construct. Only those clones were selected in which ligand independent induction of luciferase was minimal.
# 5×10^5 clonally selected HEK293T-hSTING-Luciferase cells were seeded in 384-well plates in growth medium and stimulated with novel compounds. After 20 hr of stimulation supernatant were removed and secretary reporter gene activity were measured using the Quanti-Luc detection system (Invivogen) on a Spectramax i3X luminometer.
# In the tables below, EC50 value ranges for exemplary compounds are given.
# All compounds were first tested in a primary screen to obtain a ‘fold-induction’ over baseline levels of protein activity.
# Sequence of hSTING(R232) (Q86WV6 whole entry H232R): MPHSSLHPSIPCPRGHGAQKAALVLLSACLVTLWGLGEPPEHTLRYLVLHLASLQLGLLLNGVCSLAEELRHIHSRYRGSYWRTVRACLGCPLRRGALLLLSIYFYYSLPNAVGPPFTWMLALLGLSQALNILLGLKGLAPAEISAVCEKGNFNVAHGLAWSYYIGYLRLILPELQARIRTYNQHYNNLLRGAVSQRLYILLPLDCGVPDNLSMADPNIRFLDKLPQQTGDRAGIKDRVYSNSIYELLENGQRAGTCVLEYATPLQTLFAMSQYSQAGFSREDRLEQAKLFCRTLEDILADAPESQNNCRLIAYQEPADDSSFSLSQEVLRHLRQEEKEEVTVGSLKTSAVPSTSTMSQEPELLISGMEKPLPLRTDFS
row,EC50,Compound
1,1 to 10 µM,"C[C@H]1c2ccc(C(=O)NCc3c(F)cc(F)cc3F)cc2N(Cc2c(F)cccc2NC(=O)CN)C(=O)N1C [Example 272, (S)-1-(2-(2-aminoacetamido)-6-fluorobenzyl)-3,4-dimethyl-2-oxo-N-(2,4,6-trifluorobenzyl)-1,2,3,4-tetrahydroquinazoline-7-carboxamide dihydrochloride]"
2,< 1 µM,"CC1c2ccc(C(=O)NCc3c(F)cc(F)cc3F)cc2N(Cc2c(F)cccc2F)C(=O)N1C (stereo not drawn) [Example 195, 1-(2,6-difluorobenzyl)-3,4-dimethyl-2-oxo-N-(2,4,6-trifluorobenzyl)-1,2,3,4-tetrahydroquinazoline-7-carboxamide]"
3,1 to 10 µM,"Cc1cc(CN2C(=O)N(C)C(C)c3ccc(C(=O)NCc4cc5cc(F)ccc5o4)cc32)n(C)n1 (stereo not drawn) [Example 223, 1-((1,3-dimethyl-1H-pyrazol-5-yl)methyl)-N-((5-fluorobenzofuran-2-yl)methyl)-3,4-dimethyl-2-oxo-1,2,3,4-tetrahydroquinazoline-7-carboxamide]"
4,> 10 µM,"C[C@H]1c2ccc(C(=O)NCc3c(F)cc(F)cc3F)cc2N(Cc2c(Cl)cn(CCO)c(=O)c2F)C(=O)N1C [Example 297, (S)-1-((5-chloro-3-fluoro-1-(2-hydroxyethyl)-2-oxo-1,2-dihydropyridin-4-yl)methyl)-3,4-dimethyl-2-oxo-N-(2,4,6-trifluorobenzyl)-1,2,3,4-tetrahydroquinazoline-7-carboxamide]"
5,> 10 µM,"CC1c2ccc(C(=O)NCc3c(F)cc(F)cc3F)cc2N(Cc2cc(OCC(=O)O)ccc2F)C(=O)N1C (stereo not drawn) [Example 229, 2-(3-((3,4-dimethyl-2-oxo-7-((2,4,6-trifluorobenzyl)carbamoyl)-3,4-dihydroquinazolin-1(2H)-yl)methyl)-4-fluorophenoxy)acetic acid]"
6,> 10 µM,"O=C(NCc1c(F)cc(F)cc1F)c1ccc2c(c1)N(Cc1c(F)cccc1Cl)C(=O)N(O)C2 [Example 69, 1-(2-chloro-6-fluorobenzyl)-3-hydroxy-2-oxo-N-(2,4,6-trifluorobenzyl)-1,2,3,4-tetrahydroquinazoline-7-carboxamide]"
7,> 10 µM,"CN1Cc2ccc(C(=O)NCc3cc4cc([N+](=O)[O-])ccc4o3)cc2N(Cc2c(F)cccc2Cl)C1=O [Example 48, 1-(2-chloro-6-fluorobenzyl)-3-methyl-N-((5-nitrobenzofuran-2-yl)methyl)-2-oxo-1,2,3,4-tetrahydroquinazoline-7-carboxamide]"
8,< 1 µM,"Cc1ccc(Cl)c(CN2C(=O)N(C)C(C)c3ccc(C(=O)NCc4c(F)cc(F)cc4F)cc32)c1F (stereo not drawn) [Example 163, 1-(6-chloro-2-fluoro-3-methylbenzyl)-3,4-dimethyl-2-oxo-N-(2,4,6-trifluorobenzyl)-1,2,3,4-tetrahydroquinazoline-7-carboxamide]"
9,< 1 µM,"CC1c2ccc(C(=O)NCc3c(F)cc(F)cc3F)cc2N(Cc2cc(F)cc(F)c2)C(=O)N1C (stereo not drawn) [Example 157, 1-(3,5-difluorobenzyl)-3,4-dimethyl-2-oxo-N-(2,4,6-trifluorobenzyl)-1,2,3,4-tetrahydroquinazoline-7-carboxamide]"
10,1 to 10 µM,"COc1cc(F)ccc1CN1C(=O)N(C)Cc2ccc(C(=O)NCc3c(F)cc(F)cc3F)cc21 [Example 46, l-(4-fluoro-2-methoxybenzyl)-3-methyl-2-oxo-N-(2,4,6-trifluorobenzyl)-1,2,3,4-tetrahydroquinazoline-7-carboxamide]"
11,> 10 µM,"CN1Cc2ccc(C(=O)NCc3cccc(-c4ncco4)c3)cc2N(Cc2c(F)cccc2Cl)C1=O [Example 25, 1-(2-chloro-6-fluorobenzyl)-3-methyl-N-(3-(oxazol-2-yl)benzyl)-2-oxo-1,2,3,4-tetrahydroquinazoline-7-carboxamide]"
12,< 1 µM,"Cc1ccc(F)c(CN2C(=O)N(C)C(C)c3ccc(C(=O)NCc4c(F)cc(F)cc4F)cc32)c1Br (stereo not drawn) [Example 220, 1-(2-bromo-6-fluoro-3-methylbenzyl)-3,4-dimethyl-2-oxo-N-(2,4,6-trifluorobenzyl)-1,2,3,4-tetrahydroquinazoline-7-carboxamide]"
13,> 10 µM,"C[C@H]1c2ccc(C(=O)NCc3ccc(F)cc3OCCO)cc2N(Cc2c(F)cccc2Cl)C(=O)N1C [Example 284, (S)-1-(2-chloro-6-fluorobenzyl)-N-(4-fluoro-2-(2-hydroxyethoxy)benzyl)-3,4-dimethyl-2-oxo-1,2,3,4-tetrahydroquinazoline-7-carboxamide]"
14,1 to 10 µM,"CN1Cc2ccc(C(=O)NCc3c(F)cc(F)cc3F)cc2N(Cc2c(F)cccc2C(F)(F)F)C1=O [Example 56, 1-(2-fluoro-6-(trifluoromethyl)benzyl)-3-methyl-2-oxo-N-(2,4,6-trifluorobenzyl)-1,2,3,4-tetrahydroquinazoline-7-carboxamide]"
15,1 to 10 µM,"CN1Cc2ccc(C(=O)NCc3c(F)cc(F)cc3F)cc2N(Cc2ccccc2Cl)C1=O [Example 19, l-(2-chlorobenzyl)-3-methyl-2-oxo-N-(2,4,6-trifluorobenzyl)-1,2,3,4-tetrahydroquinazoline-7-carboxamide]"
16,< 1 µM,"CC1c2ccc(C(=O)NCc3c(F)cc(F)cc3F)cc2N(Cc2ccccc2F)C(=O)N1C (stereo not drawn) [Example 194, 1-(2-fluorobenzyl)-3,4-dimethyl-2-oxo-N-(2,4,6-trifluorobenzyl)-1,2,3,4-tetrahydroquinazoline-7-carboxamide]"
17,> 10 µM,"CN1Cc2ccc(C(=O)NCc3c(F)cc(F)cc3F)cc2N(Cc2ccnn2C)C1=O [Example 53, 3-methyl-1-((1-methyl-1H-pyrazol-5-yl)methyl)-2-oxo-N-(2,4,6-trifluorobenzyl)-1,2,3,4-tetrahydroquinazoline-7-carboxamide]"
18,1 to 10 µM,"C[C@@H]1c2ccc(C(=O)NCc3c(F)cc(F)cc3F)cc2N(Cc2c(F)cccc2Cl)C(=O)N1C (single isomer, unassigned) [Example 75]"
19,> 10 µM,"Cc1ccc(CNC(=O)c2ccc3c(c2)N(Cc2cc(F)cc(F)c2)C(=O)N(C)C3)o1 [Example 2, 1-(3,5-difluorobenzyl)-3-methyl-N-((5-methylfuran-2-yl)methyl)-2-oxo-1,2,3,4-tetrahydroquinazoline-7-carboxamide]"
20,1 to 10 µM,"COc1cccc(F)c1CNC(=O)c1ccc2c(c1)N(Cc1c(F)cccc1Cl)C(=O)N(C)[C@H]2C [Example 245, (S)-1-(2-chloro-6-fluorobenzyl)-N-(2-fluoro-6-methoxybenzyl)-3,4-dimethyl-2-oxo-1,2,3,4-tetrahydroquinazoline-7-carboxamide]"
21,> 10 µM,"C[C@H]1c2ccc(C(=O)N(CCO)Cc3c(F)cc(F)cc3F)cc2N(Cc2c(F)cccc2Cl)C(=O)N1C [Example 151, (S)-1-(2-Chloro-6-fluorobenzyl)-N-(2-hydroxyethyl)-3,4-dimethyl-2-oxo-N-(2,4,6-trifluorobenzyl)-1,2,3,4-tetrahydroquinazoline-7-carboxamide]"
22,> 10 µM,"CN1Cc2ccc(C(=O)NCc3c(F)cc(F)cc3F)cc2N(Cc2cn3cc(F)ccc3n2)C1=O [Example 45, 1-((6-fluoroimidazo[1,2-a]pyridin-2-yl)methyl)-3-methyl-2-oxo-N-(2,4,6-trifluorobenzyl)-l,2,3,4-tetrahydroquinazoline-7-carboxamide]"
23,1 to 10 µM,"CN1Cc2ccc(C(=O)NCc3cc4ccccc4o3)cc2N(Cc2cc(F)cc(F)c2)C1=O [Example 16, N-(benzofuran-2-ylmethyl)-1-(3.5-difluorobenzyl)-3-methyl-2-oxo-1,2,3,4-tetrahydroquinazoline-7-carboxamide]"
24,< 1 µM,"CC1c2ccc(C(=O)NCc3c(F)cc(F)cc3F)cc2N(Cc2c(O)cccc2F)C(=O)N1C (stereo not drawn) [Example 160, 1-(2-fluoro-6-hydroxybenzyl)-3,4-dimethyl-2-oxo-N-(2,4,6-trifluorobenzyl)-1,2,3,4-tetrahydroquinazoline-7-carboxamide]"
25,< 1 µM,"CC1c2ccc(C(=O)NCc3c(F)cc(F)cc3F)cc2N(Cc2c(F)cccc2Cl)C(=O)N1C (racemic) [Example 74, 1-(2-chloro-6-fluorobenzyl)-3,4-dimethyl-2-oxo-N-(2,4,6-trifluorobenzyl)-1,2,3,4-tetrahydroquinazoline-7-carboxamide]"
26,< 1 µM,"CC1c2ccc(C(=O)NCc3c(F)cc(F)cc3F)cc2N(Cc2c(F)cccc2F)C(=O)N1C (stereo not drawn) [Example 205, 1-(2,6-difluorobenzyl)-3,4-dimethyl-2-oxo-N-(2,4,6-trifluorobenzyl)-1,2,3,4-tetrahydroquinazoline-7-carboxamide]"
27,< 1 µM,"C[C@H]1c2ccc(C(=O)NCc3c(F)cc(O)cc3F)cc2N(Cc2c(F)cc(O)cc2F)C(=O)N1C [Example 150, (S)—N,1-bis(2,6-Difluoro-4-hydroxybenzyl)-3,4-dimethyl-2-oxo-1,2,3,4-tetrahydroquinazoline-7-carboxamide]"
